According to US20250304620A1, “ANTIMICROBIAL PEPTIDE AND APPLICATION THEREOF” (priority 2023, published 2025):
Values after ≈ are worked out from the molar mass of the structure shown. Non-standard residues stand in square brackets, D forms with d. Residues, ends and D or L forms follow the SMILES beside them. Phe(4-Br) = N[C@@H](Cc1ccc(Br)cc1)C(=O)O; Phe(4-Me) = Cc1ccc(C[C@H](N)C(=O)O)cc1; 2Nal = N[C@@H](Cc1ccc2ccccc2c1)C(=O)O; hLeu = CC(C)CC[C@H](N)C(=O)O; Nle = CCCC[C@H](N)C(=O)O; Nva = CCC[C@H](N)C(=O)O

Key:
[1] = tested on: rabbit red blood cells; format: cell-based; conditions: red cells of rabbit, 1 h
Protocol: Fresh rabbit blood ([…]) was collected and centrifuged at 500 g for 5 min, a supernatant was discarded, and red blood cells were repeatedly washed with phosphate-buffered saline (PBS, 0.01 M, pH 7.4) until the supernatant was clear. The red blood cells (RBCs) were resuspended to 10 mL, and diluted 25-fold with PBS (0.01 M, pH 7.4) to prepare a red blood cell suspension with a concentration of about 2×10^8 RBC/mL. The AMPs were subjected to gradient dilution with normal saline (0.85%, w/v, NaCl) according to a multiple dilution method, final concentrations of the SMPs were 1.95, 3.9, 7.8, 15.6, 31.3, 62.5, 125, 250, 500, 1000, and 2000 μg/mL. 100 μl of polypeptide solution was taken and added to a 96-well plate with 5 replicates for each concentration; 100 μl of rabbit blood with a red blood cell count of about 2×10^8 RBC/mL was then added to each well, the plate was incubated at 37° C. for 1 h, centrifuged at 500 g for 5 min, 100 μl of supernatant was taken and transferred to a new 96-well plate, and an optical density (OD) at a wavelength of 541 nm was measured using a microplate reader. Triton X-100 (10 mg/mL as a starting concentration, two-fold gradient dilution) was used as a positive control group. A hemolysis rate was calculated using the following formula: Hemolysis rate (%)=[(OD541 of experimental group-OD541 of negative control group)/(OD541 of positive control group−OD541 of negative control group)]×100% Specific results of the hemolysis test are shown in Table 6. Minimum hemolytic concentration (MHC): a lowest drug concentration that can cause 10% hemolysis.

[2] = tested on: Staphylococcus aureus (NRS 384); assay: microbe, parasite or virus in culture; format: cell-based; conditions: NRS 384
Source text: According to the Standards of Clinical and Laboratory Standards Institute (CLSI) of the USA for antimicrobial drug susceptibility test operation standards, a micronutrient serial twofold dilution method was used to determine minimum inhibitory concentrations (MICs) of all 60 peptides (S/N: LV-1˜LV-60) against Staphylococcus aureus (NRS 384). The experiment was repeated 5 times in parallel. […] An antibacterial drug Levofloxacin and an AMP Cbf-K16 (sequence of Cbf-K16: […]) were used as positive controls to evaluate the antibacterial effect of the antimicrobial peptides on Staphylococcus aureus (NRS 384).

MIC against Staphylococcus aureus (NRS 384) [2] [µg/mL]	SMILES	MHC (minimum hemolytic concentration, lowest concentration causing 10% hemolysis) [1] [µg/mL]
8 (≈ 4.99 µM)	CCC[C@H](NC(=O)[C@H](CCCCN)NC(=O)[C@H](CCCNC(=N)N)NC(C)=O)C(=O)N[C@@H](CCC)C(=O)N[C@@H](Cc1ccc2ccccc2c1)C(=O)N[C@@H](CCCNC(=N)N)C(=O)N[C@@H](CCC)C(=O)N[C@@H](CCCCN)C(=O)N[C@@H](Cc1ccc2ccccc2c1)C(=O)N[C@@H](CCCNC(=N)N)C(=O)N[C@@H](CCCCN)C(N)=O [LV-43] (Ac-RK[Nva][Nva][2Nal]R[Nva]K[2Nal]RK-NH2)	>1000
8 (≈ 4.74 µM)	CC(=O)N[C@@H](CCCNC(=N)N)C(=O)N[C@@H](CCCCN)C(=O)N[C@@H](CCC(C)C)C(=O)N[C@@H](CCC(C)C)C(=O)N[C@@H](Cc1ccc2ccccc2c1)C(=O)N[C@@H](CCCNC(=N)N)C(=O)N[C@@H](CCC(C)C)C(=O)N[C@@H](CCCCN)C(=O)N[C@@H](Cc1ccc2ccccc2c1)C(=O)N[C@@H](CCCNC(=N)N)C(=O)N[C@@H](CCCCN)C(N)=O [LV-44] (Ac-RK[hLeu][hLeu][2Nal]R[hLeu]K[2Nal]RK-NH2)	>1000
2 (≈ 1.32 µM)	CC(=O)N[C@@H](CCCNC(=N)N)C(=O)N[C@@H](CCCCN)C(=O)N[C@@H](C)C(=O)N[C@@H](C)C(=O)N[C@@H](Cc1ccc2ccccc2c1)C(=O)N[C@@H](CCCNC(=N)N)C(=O)N[C@@H](C)C(=O)N[C@@H](CCCCN)C(=O)N[C@@H](Cc1ccc2ccccc2c1)C(=O)N[C@@H](CCCNC(=N)N)C(=O)N[C@@H](CCCCN)C(N)=O [LV-45] (Ac-RKAA[2Nal]RAK[2Nal]RK-NH2)	>1000
4 (≈ 2.49 µM)	CC(=O)N[C@@H](CCCNC(=N)N)C(=O)N[C@@H](CCCCN)C(=O)N[C@H](C(=O)N[C@H](C(=O)N[C@@H](Cc1ccc2ccccc2c1)C(=O)N[C@@H](CCCNC(=N)N)C(=O)N[C@H](C(=O)N[C@@H](CCCCN)C(=O)N[C@@H](Cc1ccc2ccccc2c1)C(=O)N[C@@H](CCCNC(=N)N)C(=O)N[C@@H](CCCCN)C(N)=O)C(C)C)C(C)C)C(C)C [LV-46] (Ac-RKVV[2Nal]RVK[2Nal]RK-NH2)	>1000

More lines, now with the values behind:

SMILES	MIC against Staphylococcus aureus (NRS 384) [2] [µg/mL]	MHC (minimum hemolytic concentration, lowest concentration causing 10% hemolysis) [1] [µg/mL]
CC(=O)N[C@@H](CCCCN)C(=O)N[C@@H](CCCCN)C(=O)N[C@@H](CC(C)C)C(=O)N[C@@H](CC(C)C)C(=O)N[C@@H](Cc1ccc(Br)cc1)C(=O)N[C@@H](CCCNC(=N)N)C(=O)N[C@@H](CC(C)C)C(=O)N[C@@H](CCCCN)C(=O)N[C@@H](Cc1ccc(Br)cc1)C(=O)N[C@@H](CCCNC(=N)N)C(=O)N[C@@H](CCCCN)C(N)=O [LV-40] (Ac-KKLL[Phe(4-Br)]RLK[Phe(4-Br)]RK-NH2)	4 (≈ 2.39 µM)	>1000
CC(=O)N[C@@H](CCCNC(=N)N)C(=O)N[C@@H](CCCCN)C(=O)N[C@@H](CC(C)C)C(=O)N[C@@H](CC(C)C)C(=O)N[C@@H](Cc1ccc(C)cc1)C(=O)N[C@@H](CCCCN)C(=O)N[C@@H](CC(C)C)C(=O)N[C@@H](CCCCN)C(=O)N[C@@H](Cc1ccc(C)cc1)C(=O)N[C@@H](CCCCN)C(=O)N[C@@H](CCCNC(=N)N)C(N)=O [LV-41] (Ac-RKLL[Phe(4-Me)]KLK[Phe(4-Me)]KR-NH2)	4 (≈ 2.59 µM)	>1000
CCCC[C@H](NC(=O)[C@H](CCCCN)NC(=O)[C@H](CCCNC(=N)N)NC(C)=O)C(=O)N[C@@H](CCCC)C(=O)N[C@@H](Cc1ccc2ccccc2c1)C(=O)N[C@@H](CCCNC(=N)N)C(=O)N[C@@H](CCCC)C(=O)N[C@@H](CCCCN)C(=O)N[C@@H](Cc1ccc2ccccc2c1)C(=O)N[C@@H](CCCNC(=N)N)C(=O)N[C@@H](CCCCN)C(N)=O [LV-42] (Ac-RK[Nle][Nle][2Nal]R[Nle]K[2Nal]RK-NH2)	8 (≈ 4.86 µM)	>1000
